Measured values taken from patent US9145449B2, “STIP1 polypeptides and uses thereof” (Chang Gung Memorial Hospital, Linkou Branch, priority 2013, dated 2015).
Where a SMILES comes first, the peptide text is derived from it. Where no end group is shown, it is not given here.

Columns and labels:
ovarian cancer cells = assay: BrdU proliferation assay (FIG. 7A, 7C, 7E); format: cell-based, human; conditions: for rhSTIP1-increased BrdU incorporation: with inhibitor, antibody or siRNA
Protocol: (§1) The BrdU assay and Ki67 staining procedures have been reported previously (Tsai et al 2012, Wang et al 2010). For BrdU assays, cancer cells were seeded at a density of 10^4 cells/well in a 96-well plate overnight, and cultured in serum-free medium for 24 h. Cancer cells were treated with 0.4 μM of rhSTIP1 in the presence of BrdU for 24 h. DNA synthesis activity was measured using BrdU ELISA kit (Roche Applied Science). For immunocytochemistry studies of Ki-67, MDAH2774 cells were cultured on Lab-Tek II chamber slides (Nalge Nunc International, Denmark) overnight. After serum starvation or RNAi transfection for 72 h, cancer cells were treated with 0.4 μM of STIP1 with or without an STIP1 antibody for another 24 h. The slides were fixed with 99.9% of ethanol, rehydrated with PBS, treated with 3% of hydrogen peroxide for 20 min, permeabilized with 0.1% Triton X-100 (Sigma) for 15 min, and stained with anti-Ki67 antibody (Thermo Fisher Scientific, Rockford, Ill.).
(§2) BrdU is an analogue of thymidine which can replace thymidine during DNA replication, and Ki67 is a nuclear protein that is associated with cell proliferation. BrdU incorporation assay and immunocytochemistry for endogenous Ki67 were used as an index for cell proliferation. Treatment with rhSTIP1 increased the BrdU incorporation rate and Ki67 staining of ovarian cancer cells (FIG. 7A to FIG. 7F). These activities were reduced by treatment with an ALK2/ALK3 inhibitor (LDN193189) and an ERK inhibitor (PD98059) (FIGS. 7A and 7B), an STIP1 antibody (FIGS. 7C and 7D), and ALK2 siRNA and STIP1 siRNA (FIGS. 7E and 7F).

MDAH2774 cells = assay: Ki67 immunocytochemistry (FIG. 7B, 7D, 7F); format: cell-based, human; conditions: for rhSTIP1-increased Ki67 staining: with inhibitor, antibody or siRNA
Protocol: as §1, §2

SMAD1/5 phosphorylation = SMAD1/5 phosphorylation western blot / antibody neutralization assay (FIG. 6A, 6B); format: cell-based, human; conditions: ES2, SKOV3, TOV21G, TOV112D, BR, BG1, RL95-2, CL1-0, NPC-BM1 cell lines
Protocol: Cell lysates were prepared with a RIPA buffer (150 mM NaCl, 20 mM Tris-Cl pH7.5, 1% Triton X-100, 1% NP40, 0.1% SDS, 0.5% deoxycholate) containing freshly added proteinase and phosphatase inhibitors (Bionovas, Toronto). Protein concentration was measured using the Bradford method. Fifty μg of each sample was electrophoresed in 10% SDS-polyacrylamide gels, and transferred to nitrocellulose membranes. STIP1 antibody was commercially available from Abnova Biotechnology and Santa Cruz Biotechnology, Santa Cruz, Calif., actin was commercially available from Sigma, the corresponding horseradish peroxidase-conjugated antibody was commercially available from Santa Cruz Biotechnology, enhanced chemiluminescence reagent was commercially available from Millipore Inc. (Millipore, Billerica, Mass.). The signal intensity of autoradiogram was quantified using the UN-SCAN-IT software (Silk Scientific, Orem, Utah), and relative intensity of each sample was normalized by the corresponding actin intensity. For antibody neutralization assay, cancer cells were cultured in serum-free medium for 24 h, and treated with rhSTIP1 for another 24 h in the presence or absence of the STIP1 monoclonal antibody, which were pre-incubated at 37° C. for 1 h. Endogenous phospho-SMAD1/5 was detected with western blot analysis. […]

[1] = system: ovarian cancer cells (MDAH2774); assay: MTT cell viability of transfected MDAH2774 cells; format: cell-based, human; conditions: for Normalized O.D / Original O.D / cancer cell viability (in words, FIG. 10B and Table 2): MTT, MDAH2774; for Normalized O.D / Original O.D: peptide 200 uM; for cancer cell viability (in words, FIG. 10B and Table 2): transfected peptides
Excerpt: Human ovarian cancer cell lines TOV112D, TOV21G, SKOV3, MDAH2774, ES2, MDAH2774, BG1; human endometrial cancer cell line RL95-2, human pancreatic cancer cell line BxPC3, breast cancer cell line (MCF7) and colon cancer cell line (HT29) were obtained from ATCC (Rockville, Md., USA). Lung cancer cell line CL1-0 and nasopharyngeal carcinoma cell line NPC-BM1 were obtained from Dr. C C Wu (Department of Medical Biotechnology and Laboratory Science, Chang-Gung University, Taoyuan, Taiwan), Wu et al. Mol. Cell Proteomics 9(6):11100 (20101). Mouse ovarian cancer cell line MOSEC was obtained from Dr. C L Chang (Department of Obstetrics and Gynecology, Mackay Memorial Hospital, Taipei, Taiwan), Chang et al. Cancer Research 67:10047 (2007). TOV112D, TOV21G, SKOV3, MDAH2774, ES2 and RL95-2 were cultured in Dulbecco's modified Eagle's medium/F-12 supplemented with 10% fetal bovine serum and antibiotics at 37° C. in 5% CO2 humidified atmosphere. BxPC3, CL1-0, NPC-BM1 and MOSEC cells were cultured in RPMI 1640 media supplemented with 10% fetal bovine serum.
Cancer cells were transfected with an STIP1 antibody in PLUSin reagent (Polyplus-transfection Inc., NY, USA) according to manufacturer's protocol. In summary, 2×10^3˜6×10^3 cancer cells were seeded in a 96-well plate overnight, followed by PBS rinse and the addition of 180 μl of OPTI-MEM. 0.6 μg of mouse STIP1 antibody were diluted in 20 mM HEPES, mixed with 1.2 μl of PLUSin by vortexing, followed by incubation at room temperature for 15 min. The antibody/PLUSin mixture was added to the cancer cells by gentle swirling the plate. The STIP1 antibody and the control IgG used in the working examples described herein are commercially available from Abnova Biotechnology Inc., (Taipei City, Taiwan). The STIP1 antibody in the working examples described herein can be used to detect recombinant full length STIP1 (SEQ ID NO:3).
1˜2×10^4 Cancer cells were plated per well in 96-well plates overnight, then transfected with a mouse STIP1 antibody (commercially available from Abnova Biotechnology Inc.) for 48 h before they were assessed. The inhibitory effect of the STIP1 antibody on the cancer cells was measured by the MTT [3-(4,5-Dimethylthiazol-2-yl)-2,5-Diphenyltetrazolium Bromide]method (Sigma St. Louis, Mo.). The optical density was measured at 570 nm using an automated scanning multiwell spectrophotometer (Wallac Victor2 spectrophotometer; PerkinElmer, Boston, Mass., USA).
Given the neutralizing effect of STIP1 polypeptide 520-543 (SEQ ID NO:1) on STIP1 antibody, co-transfecting STIP1 antibody and STIP1 polypeptide 520-543 in cancer cells may reduce the suppression effect of STIP1 antibody. FIG. 10A and Table 1 show cell viability of ovarian cancer cells (MDAH2774) transfected with STIP1 antibody only (positive control) and STIP1 antibody with various concentrations of STIP1 polypeptide 520-543. Cell viability was evaluated using MTT assays. […] For example, the cell viability for STIP1 antibody was 78.81% (Table 1), the cell viability for 25 uM of STIP1 polypeptide 520-543 was 102% (Table 2), and the cell viability for STIP1 antibody and […] of STIP1 polypeptide 520-543 was 56.38% (Table 1). Similarly, the cell viability for 200 uM of STIP1 polypeptide 520-543 was 28.64% (Table 2), and the cell viability for STIP1 antibody and […] of STIP1 polypeptide 520-543 was 27.67% (Table 1).

[2] = system: MDAH2774, ARK2, NPC-BM1, SAS, Colon 205, CL 1-0, BxPC3, HepG2 and MCF7 cells; assay: LDH assay with cell permeable peptide, cancer cell line panel (FIG. 13A); format: cell-based; conditions: all of the tested cancer cells
Protocol: (§3) Cell permeable STIP1 polypeptide 520-543 was added to the following cancer cell lines: MDAH2774 (ovarian cancer); ARK2 (endometrial cancer); NPC-BM1 (nasopharyngeal cancer); SAS (oral cancer); Colon 205 (colon cancer); CL 1-0 (lung cancer); BxPC3 (pancreatic cancer); HepG2 (liver cancer) and MCF7 (breast cancer) cells. Cancer cell viability was assessed using the MTT assay and cell death was assessed using LDH assay.

[3] = system: MDAH2774, ARK2, NPC-BM1, SAS, Colon 205, CL 1-0, BxPC3, HepG2 and MCF7 cells; assay: MTT assay with cell permeable peptide, cancer cell line panel (FIG. 13B); format: cell-based; conditions: all of the tested cancer cells
Protocol: as §3

Molecule | rhSTIP1-increased BrdU incorporation (ovarian cancer cells) | rhSTIP1-increased Ki67 staining (MDAH2774 cells) | Normalized O.D [1] | Original O.D [1] | cancer cell viability (in words, FIG. 10B and Table 2) [1] | other results
c1ccc2c(-c3cnn4cc(-c5ccc(N6CCNCC6)cc5)cnc34)ccnc2c1 [LDN193189] | reduced | reduced | – | – | – | –
COc1cccc(-c2cc(=O)c3ccccc3o2)c1N [PD98059] | reduced | reduced | – | – | – | cell proliferation (BrdU incorporation, FIG. 7A) (ovarian cancer cells; inhibition of ERK activity): strongly inhibited cell proliferation
rhSTIP1: recombinant human STIP1 protein (a.a. sequence number 1 to 543) | – | – | – | – | – | SMAD1/5 phosphorylation (SMAD1/5 phosphorylation): stimulates SMAD1/5 phosphorylation; BrdU incorporation rate (ovarian cancer cells; treatment with rhSTIP1 (0.4 μM, 24 h)): increased; Ki67 staining (MDAH2774 cells; treatment with rhSTIP1): increased
CSCC[C@H](NC(=O)[C@H](CCSC)NC(=O)[C@H](CS)NC(=O)[C@H](CCCNC(=N)N)NC(=O)[C@H](CCC(N)=O)NC(=O)[C@H](Cc1ccc(O)cc1)NC(=O)CNC(=O)[C@H](CC(=O)O)NC(=O)[C@H](C)NC(=O)[C@H](C)NC(=O)[C@H](CCC(=O)O)NC(=O)[C@H](CCCCN)NC(=O)[C@H](CS)NC(=O)[C@H](CO)NC(=O)[C@H](CO)NC(=O)[C@@H](N)CC(=O)O)C(=O)N[C@@H](C)C(=O)N[C@@H](CCC(N)=O)C(=O)N[C@@H](Cc1ccc(O)cc1)C(=O)N[C@@H](CC(N)=O)C(=O)N[C@@H](CCCNC(=N)N)C(=O)N[C@@H](Cc1c[nH]cn1)C(=O)N[C@@H](CC(=O)O)C(=O)N[C@@H](CO)C(=O)N1CCC[C@H]1C(=O)O [Peptide 458] (H-DSSCKEAADGYQRCMMAQYNRHDSP-OH; N-terminus and C-terminus assumed) | – | – | 0.83 | 0.13 | did not significantly suppress cancer cell viability | –
cell permeable STIP1 polypeptide 520-543: STIP1 polypeptide 520-543 having eight D-arginine residues; detected with anti-myc antibody (EHLKNPVIAQKIQKLMDVGLIAIR; also: octa-D-arginine attached, end not given here, myc tag; UniProt P31948 520-543, looked up, fragment) | – | – | – | – | – | cell death (LDH activity) [2]: induce cell death; cell proliferation (MTT activity) [3]: inhibits cell proliferation
VQQIMSDPAMRLILEQMQKDPQALS [Peptide 495] | – | – | 0.97 | 0.14 | did not significantly suppress cancer cell viability | Cell viability (%) ([1]; human, 48 h, 200 uM): 96.94%
